# pIC50: −log10 of the molar value. Read-outs that look alike come from different tables or passages of the source.
# Molecular target: NS5B polymerase (Hepatitis C virus genotype 1b, UniProt P26663)
# Assay: HCV NS5B polymerase inhibition assay (streptavidin-coated FlashPlate, [α-33P]GTP incorporation)
# Assay type: biochemical
# Protocol: Compounds were tested for HCV polymerase inhibition. Assays were performed in a 96-well streptavidin-coated FlashPlate using 20 nM enzyme, 0.5 μCi of [α-^33P]GTP, 0.6 μM GTP, and 250 nM 5′biotinylated oligo (rG13)/poly rC in 20 mM Tris-HCl, pH 7.5, 5 mM MgCl2, 5 mM dithiothreitol, […] bovine serum albumin, and 100 U/mL RNAse inhibitor. The reaction was stopped by aspiration after 75 min at 28° C. and the plate was washed several times. After washing and drying the plate, incorporated radioactivity was counted using a Microbeta scintillation counter. IC50 values were calculated relative to the uninhibited control and inhibition data were fitted to a 4-parameter IC50 equation.
# [1] = 20 nM enzyme, 75 min at 28° C., read-out: NS5B Polymerase IC50
# Chain of NS5B polymerase (P26663 2420-3010): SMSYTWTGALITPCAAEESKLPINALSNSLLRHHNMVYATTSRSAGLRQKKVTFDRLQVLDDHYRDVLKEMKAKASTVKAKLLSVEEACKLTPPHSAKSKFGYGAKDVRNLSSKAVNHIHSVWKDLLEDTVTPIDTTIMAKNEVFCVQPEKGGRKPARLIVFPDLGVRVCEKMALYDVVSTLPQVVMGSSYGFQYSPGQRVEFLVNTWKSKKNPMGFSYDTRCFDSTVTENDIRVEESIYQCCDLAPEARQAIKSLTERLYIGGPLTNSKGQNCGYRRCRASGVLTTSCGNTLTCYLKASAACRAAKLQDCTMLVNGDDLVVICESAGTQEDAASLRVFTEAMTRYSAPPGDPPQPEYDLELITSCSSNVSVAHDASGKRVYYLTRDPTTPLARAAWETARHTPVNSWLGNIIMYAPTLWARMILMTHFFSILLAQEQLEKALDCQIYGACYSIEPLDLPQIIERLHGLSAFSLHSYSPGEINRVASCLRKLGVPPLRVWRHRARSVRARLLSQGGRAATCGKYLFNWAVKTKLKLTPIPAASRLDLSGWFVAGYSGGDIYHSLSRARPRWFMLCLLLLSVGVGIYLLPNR
SMILES,pIC50 [1],pIC50
"CC(C)CCn1c(=O)c(C2=NS(=O)(=O)c3ccccc3N2)c(O)c2cccn21 [Example 1, 3-(1,1-Dioxo-1,4-dihydro-1λ^6-benzo[1,2,4]thiadiazin-3-yl)-4-hydroxy-1-(3-methyl-butyl)-pyrrolo[1,2-b]pyridazin-2-one]",5.52 to 7.00,–
"COc1ccc2c(c1)S(=O)(=O)N=C(c1c(O)c3cccn3n(CCC(C)C)c1=O)N2 [Example 2, 4-Hydroxy-3-(7-methoxy-1,1-dioxo-1,4-dihydro-1λ^6-benzo[1,2,4]thiadiazin-3-yl)-1-(3-methyl-butyl)-pyrrolo[1,2-b]pyridazin-2-one]",5.52 to 7.00,–
"CC(C)CCn1c(=O)c(C2=Nc3ccc(NS(C)(=O)=O)cc3S(=O)(=O)N2)c(O)c2cccn21 [Example 3, N-{3-[4-Hydroxy-1-(3-methyl-butyl)-2-oxo-1,2-dihydro-pyrrolo[1,2-b]pyridazin-3-yl]-1,1-dioxo-1,4-dihydro-1λ^6-benzo[1,2,4]thiadiazin-7-yl}-methanesulfonamide]",–,> 7.00
"CC(C)(C)CCn1c(=O)c(C2=NS(=O)(=O)c3cc(NS(C)(=O)=O)ccc3N2)c(O)c2cccn21 [Example 4, N-{3-[1-(3,3-Dimethyl-butyl)-4-hydroxy-2-oxo-1,2-dihydro-pyrrolo[1,2-b]pyridazin-3-yl]-1,1-dioxo-1,4-dihydro-1λ^6-benzo[1,2,4]thiadiazin-7-yl}-methanesulfonamide]",> 7.00,–
"CN(c1ccc2c(c1)S(=O)(=O)N=C(c1c(O)c3cccn3n(CCC(C)(C)C)c1=O)N2)S(C)(=O)=O [Example 5, N-{3-[1-(3,3-Dimethyl-butyl)-4-hydroxy-2-oxo-1,2-dihydro-pyrrolo[1,2-b]pyridazin-3-yl]-1,1-dioxo-1,4-dihydro-1λ^6-benzo[1,2,4]thiadiazin-7-yl}-N-methyl-methanesulfonamide]",> 7.00,–
"CC(C)CCn1c(=O)c(C2=NS(=O)(=O)c3cc(N(C)S(C)(=O)=O)ccc3N2)c(O)c2cccn21 [Example 6, N-{3-[4-Hydroxy-1-(3-methyl-butyl)-2-oxo-1,2-dihydro-pyrrolo[1,2-b]pyridazin-3-yl]-1,1-dioxo-1,4-dihydro-1λ^6-benzo[1,2,4]thiadiazin-7-yl}-N-methyl-methanesulfonamide]",5.52 to 7.00,–
"CC(C)CCn1c(=O)c(C2=CS(=O)(=O)c3cc(N(C)S(C)(=O)=O)ccc3N2)c(O)c2cccn21 [Example 7, N-{3-[4-Hydroxy-1-(3-methyl-butyl)-2-oxo-1,2-dihydro-pyrrolo[1,2-b]pyridazin-3-yl]-1,1-dioxo-1,4-dihydro-1λ^6-benzo[1,4]thiazin-7-yl}-N-methyl-methanesulfonamide]",5.52 to 7.00,–
"CC(C)(C)CCn1c(=O)c(C2=CS(=O)(=O)c3cc(NS(C)(=O)=O)ccc3N2)c(O)c2cccn21 [Example 8, N-{3-[1-(3,3-Dimethyl-butyl)-4-hydroxy-2-oxo-1,2-dihydro-pyrrolo[1,2-b]pyridazin-3-yl]-1,1-dioxo-1,4-dihydro-1λ^6-benzo[1,4]thiazin-7-yl}-methanesulfonamide]",> 7.00,–
"CS(=O)(=O)Nc1ccc2c(c1)S(=O)(=O)N=C(c1c(O)c3cccn3n(Cc3ccc(F)cc3)c1=O)N2 [Example 9, N-{3-[1-(4-Fluoro-benzyl)-4-hydroxy-2-oxo-1,2-dihydro-pyrrolo[1,2-b]pyridazin-3-yl]-1,1-dioxo-1,4-dihydro-1λ^6-benzo[1,2,4]thiadiazin-7-yl}-methanesulfonamide]",> 7.00,–
"CN(c1ccc2c(c1)S(=O)(=O)N=C(c1c(O)c3cccn3n(Cc3ccc(F)cc3)c1=O)N2)S(C)(=O)=O [Example 10, N-{3-[1-(4-Fluoro-benzyl)-4-hydroxy-2-oxo-1,2-dihydro-pyrrolo[1,2-b]pyridazin-3-yl]-1-dioxo-1,4-dihydro-1λ^6-benzo[1,2,4]thiadiazin-7-yl}-N-methyl-methanesulfonamide]",5.52 to 7.00,–
"O=c1c(C2=NS(=O)(=O)c3cc(C4CCCS4(=O)=O)ccc3N2)c(O)c2cccn2n1Cc1ccc(F)cc1 (centres unmarked) [Example 11, 3-[7-(1,1-Dioxo-tetrahydro-1λ^6-thiophen-2-yl)-1,1-dioxo-1,4-dihydro-1λ^6-benzo[1,2,4]thiadiazin-3-yl]-1-(4-fluoro-benzyl)-4-hydroxy-pyrrolo[1,2-b]pyridazin-2-one]",5.52 to 7.00,–
"O=c1c(C2=NS(=O)(=O)c3ccccc3N2)c(O)c2cccn2n1Cc1ccc(F)cc1 [Example 12, 3-(1,1-Dioxo-1,4-dihydro-1λ^6-benzo[1,2,4]thiadiazin-3-yl)-1-(4-fluoro-benzyl)-4-hydroxy-pyrrolo[1,2-b]pyridazin-2-one]",5.52 to 7.00,–
"CC(C)CCn1c(=O)c(C2=NS(=O)(=O)c3cc(NS(=O)(=O)C4CC4)ccc3N2)c(O)c2cccn21 [Example 13, Cyclopropanesulfonic acid {3-[4-hydroxy-1-(3-methyl-butyl)-2-oxo-1,2-dihydro-pyrrolo[1,2-b]pyridazin-3-yl]-1,1-dioxo-1,4-dihydro-1λ^6-benzo[1,2,4]thiadiazin-7-yl}-amide]",5.52 to 7.00,–
"CC(C)CCn1c(=O)c(C2=NS(=O)(=O)c3cc(NS(C)(=O)=O)ccc3N2)c(O)c2cc(F)cn21 [Example 14, N-{3-[6-Fluoro-4-hydroxy-1-(3-methyl-butyl)-2-oxo-1,2-dihydro-pyrrolo[1,2-b]pyridazin-3-yl]-1,1-dioxo-1,4-dihydro-1λ^6-benzo[1,2,4]thiadiazin-7-yl}-methanesulfonamide]",> 7.00,–
"CC(C)CCn1c(=O)c(C2=NS(=O)(=O)c3cc(NS(C)(=O)=O)ccc3N2)c(O)c2cc(C#N)cn21 [Example 15, N-{3-[6-Cyano-4-hydroxy-1-(3-methyl-butyl)-2-oxo-1,2-dihydro-pyrrolo[1,2-b]pyridazin-3-yl]-1,1-dioxo-1,4-dihydro-1λ^6-benzo[1,2,4]thiadiazin-7-yl}-methanesulfonamide]",5.52 to 7.00,–
"CC(C)CCn1c(=O)c(C2=CS(=O)(=O)c3cc(NS(C)(=O)=O)ccc3N2)c(O)c2cccn21 [Example 16, N-{3-[4-Hydroxy-1-(3-methyl-butyl)-2-oxo-1,2-dihydro-pyrrolo[1,2-b]pyridazin-3-yl]-1,1-dioxo-1,4-dihydro-1λ^6-benzo[1,4]thiazin-7-yl}-methanesulfonamide]",> 7.00,–
"CS(=O)(=O)Nc1ccc2c(c1)S(=O)(=O)N=C(c1c(O)c3cccn3n(Cc3ccc(F)c(Cl)c3)c1=O)N2 [Example 17, N-{3-[1-(3-Chloro-4-fluoro-benzyl)-4-hydroxy-2-oxo-1,2-dihydro-pyrrolo[1,2-b]pyridazin-3-yl]-1,1-dioxo-1,4-dihydro-1λ^6-benzo[1,2,4]thiadiazin-7-yl}-methanesulfonamide]",–,> 7.00

# — patent US7842838B2, “Pyrro[1,2-b]pyridazinone intermediates” (Anadys Pharmaceuticals, Inc., priority 2006, dated 2010)
